Source: patent US20090111860A1, “SULFONAMIDE COMPOUNDS USEFUL AS ADG RECEPTOR MODULATORS” (ASTRAZENECA AB, priority 2006, published 2009)

Biological target: T1, EDG-1/S1P1 receptor (Homo sapiens, UniProt P21453)
T1 construct: expressed in transfected cells; host or cells: human osteogenic sarcoma U2OS cells (EDG-1 Transfluor U2OS WT Clone #37)
Experiment: In vitro cell based receptor activation assay - Transfluor assay
Details: EDG-1 Transfluor U2OS WT Clone #37 cells; beta-arrestin GFP relocalization; 375 nM or 750 nM S1P ligand
Source text: A. In Vitro Cell Based Receptor Activation Assay-Transfluor Assay
This cell-based assay was designed to assess the ability of small molecule antagonists to inhibit activation of the GPCR S1P1 in the presence of its cognate ligand S1P. The assay used technology initially developed by Norak Biosciences (Xsira Pharmaceutical) and presently owned by Molecular Devices. A human osteogenic sarcoma (U2OS) cell line overexpressing the EDG-1/S1P1) receptor as well as a beta-arrestin/green fluorescent protein (GFP) construct hereafter termed EDG-1 Transfluor U2OS WT Clone #37 was employed.
Using a high content screening approach (Cellomics Arrayscan), receptor activity was measured by assessment of the relocalization of beta-arrestin GFP in response to stimulation of EDG-1 by S1P. Specifically, EDG-1 Transfluor U2OS WT Clone #37 cells were plated at a density of 6250 cells in 40 uL medium per well in 384 well plastic bottomed microtiter plates (BD Falcon) and incubated overnight at 37° C./5% CO2. Prior to screening, compounds were dissolved in 100% dimethyl sulfoxide (DMSO) to a final stock concentration of 10 mM. […] Plates were then sealed and analysed on the Cellomics Arrayscan using the GPCR signalling algorithm. EC50 values were then calculated using IDBS ActivityBase software.

T1 sequence (P21453 whole entry): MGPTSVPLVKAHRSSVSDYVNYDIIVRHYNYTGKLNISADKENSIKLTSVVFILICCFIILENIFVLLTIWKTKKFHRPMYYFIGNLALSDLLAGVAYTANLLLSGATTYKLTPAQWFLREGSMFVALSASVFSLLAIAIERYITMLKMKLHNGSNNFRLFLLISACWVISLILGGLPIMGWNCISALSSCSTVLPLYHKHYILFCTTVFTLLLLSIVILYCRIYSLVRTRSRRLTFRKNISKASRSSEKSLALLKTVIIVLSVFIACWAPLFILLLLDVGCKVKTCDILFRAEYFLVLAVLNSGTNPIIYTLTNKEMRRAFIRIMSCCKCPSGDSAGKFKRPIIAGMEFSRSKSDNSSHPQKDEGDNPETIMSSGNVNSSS

Compound: CCc1c(C(C)NS(=O)(=O)c2ccc(Cl)cc2)n[nH]c1C (stereo not shown) [Example 1]
- EC50: 0.68 µM
